Patent US10758534B2 (Vertex Pharmaceuticals Incorporated, priority 2014, dated 2020)

Molecular target: T1, F508del (Homo sapiens, UniProt P13569, DEL508-508)
T1 construct: expressed in transfected cells
Assay: Protocol 1: membrane potential optical assay (FLIPR III, voltage sensing dye), identification of potentiator compounds
Type: cell-based
Conditions: Table 3, compounds of Table 1
How it was run: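 NIH3T3 F508del cells, 27° C × 24 hrs; compound/DMSO pretreat → redistribution dye load → single forskolin addition with Cl⁻ gradient (gluconate-substituted bath, HEPES pH 7.4). FLIPR III membrane-potential fluorescence read.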

T1 sequence (P13569 with tags, fused parts or gaps DEL508-508): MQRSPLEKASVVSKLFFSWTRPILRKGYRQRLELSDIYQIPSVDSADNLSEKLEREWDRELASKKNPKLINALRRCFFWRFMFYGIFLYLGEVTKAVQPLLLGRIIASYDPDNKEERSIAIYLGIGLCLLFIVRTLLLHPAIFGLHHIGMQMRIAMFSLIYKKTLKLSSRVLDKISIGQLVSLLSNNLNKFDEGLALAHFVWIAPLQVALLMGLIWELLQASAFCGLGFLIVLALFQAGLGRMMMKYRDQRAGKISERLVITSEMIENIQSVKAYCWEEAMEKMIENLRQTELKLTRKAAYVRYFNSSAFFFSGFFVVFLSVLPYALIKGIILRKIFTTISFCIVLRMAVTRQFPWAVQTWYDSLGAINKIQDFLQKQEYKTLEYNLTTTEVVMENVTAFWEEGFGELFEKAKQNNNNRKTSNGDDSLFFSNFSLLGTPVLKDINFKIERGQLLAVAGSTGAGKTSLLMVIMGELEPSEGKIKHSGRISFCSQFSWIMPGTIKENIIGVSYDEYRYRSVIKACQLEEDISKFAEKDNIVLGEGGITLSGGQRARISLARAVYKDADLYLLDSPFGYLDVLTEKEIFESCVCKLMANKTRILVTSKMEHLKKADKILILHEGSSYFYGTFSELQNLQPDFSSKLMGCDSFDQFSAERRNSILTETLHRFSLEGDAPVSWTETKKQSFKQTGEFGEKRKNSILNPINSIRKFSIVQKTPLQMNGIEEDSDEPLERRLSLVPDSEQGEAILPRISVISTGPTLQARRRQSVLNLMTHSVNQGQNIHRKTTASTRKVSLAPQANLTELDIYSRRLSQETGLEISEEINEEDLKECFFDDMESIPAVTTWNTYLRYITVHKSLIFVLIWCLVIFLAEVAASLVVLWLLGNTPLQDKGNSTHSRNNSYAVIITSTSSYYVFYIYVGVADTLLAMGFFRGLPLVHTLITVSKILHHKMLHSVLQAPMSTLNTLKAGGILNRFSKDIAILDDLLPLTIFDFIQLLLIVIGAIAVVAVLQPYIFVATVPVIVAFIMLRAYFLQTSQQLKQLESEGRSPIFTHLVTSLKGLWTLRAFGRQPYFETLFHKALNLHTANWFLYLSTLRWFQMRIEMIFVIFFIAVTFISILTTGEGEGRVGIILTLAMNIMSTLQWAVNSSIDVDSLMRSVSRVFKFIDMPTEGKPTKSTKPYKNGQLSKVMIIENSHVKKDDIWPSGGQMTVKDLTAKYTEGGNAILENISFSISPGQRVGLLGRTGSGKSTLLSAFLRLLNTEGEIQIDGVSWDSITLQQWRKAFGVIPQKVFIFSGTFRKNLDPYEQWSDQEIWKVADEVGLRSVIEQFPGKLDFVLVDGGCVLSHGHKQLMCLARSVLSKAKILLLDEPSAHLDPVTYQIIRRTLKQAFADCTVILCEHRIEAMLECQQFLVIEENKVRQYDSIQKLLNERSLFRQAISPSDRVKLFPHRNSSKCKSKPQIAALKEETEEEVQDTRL

Compound	EC30
CCCOc1cc(-c2ccc(C(=O)NS(=O)(=O)c3ccc[nH]c3=O)c(N3[C@H](C)CC[C@@H]3C)n2)ccc1Cl [Compound 1293, 6-(4-chloro-3-propoxy-phenyl)-2-[(2R,5S)-2,5-dimethylpyrrolidin-1-yl]-N-[(2-oxo-1H-pyridin-3-yl)sulfonyl]pyridine-3-carboxamide]	++ (“++” means between 3 uM and 10 uM)
CCOc1cccc2c1CN(Cc1c(C)cc(C)cc1C)C2(C)C(=O)NS(=O)(=O)c1cccc2[nH]ccc12 (stereo not drawn) [Compound 1666, 4-ethoxy-N-(1H-indol-4-ylsulfonyl)-1-methyl-2-[(2,4,6-trimethylphenyl)methyl]isoindoline-1-carboxamide]	+++ (“+++” means <3 uM)
CC1CN(c2ncccc2C(=O)NS(=O)(=O)c2cccc(Oc3cccc4ccccc34)n2)C(C)(C)C1 (stereo not drawn) [Compound 1751, N—[[6-(1-naphthyloxy)-2-pyridyl]sulfonyl]-2-(2,2,4-trimethylpyrrolidin-1-yl)pyridine-3-carboxamide]	+++ (“+++” means <3 uM)
CCOc1cncc(-c2ccc(C(=O)NS(=O)(=O)c3cccc(N)n3)c(N3CC(C)CC3(C)C)n2)n1 (stereo not drawn) [Compound 1252, N-[(6-amino-2-pyridyl)sulfonyl]-6-(6-ethoxypyrazin-2-yl)-2-(2,2,4-trimethylpyrrolidin-1-yl)pyridine-3-carboxamide]	+++ (“+++” means <3 uM)
CC(C)COc1cc(-c2ccc(C(=O)NS(=O)(=O)c3ccn[nH]3)c(N3[C@H](C)CC[C@@H]3C)n2)ccc1Cl [Compound 1234, 6-(4-chloro-3-isobutoxy-phenyl)-2-[(2S,5R)-2,5-dimethylpyrrolidin-1-yl]-N-(1H-pyrazol-5-ylsulfonyl)pyridine-3-carboxamide]	+++ (“+++” means <3 uM)
CCc1ccc(C(=O)NS(=O)(=O)c2cccc(N)n2)c(N2C[C@@H](C)CC2(C)C)n1 [Compound 1507, N-[(6-amino-2-pyridyl)sulfonyl]-6-ethyl-2-[(4S)-2,2,4-trimethylpyrrolidin-1-yl]pyridine-3-carboxamide]	++ (“++” means between 3 uM and 10 uM)
C[C@@H]1CN(c2nc(C3=COCCC3)ccc2C(=O)NS(=O)(=O)c2cccc(N)n2)C(C)(C)C1 [Compound 1524, N-[(6-amino-2-pyridyl)sulfonyl]-6-(3,4-dihydro-2H-pyran-5-yl)-2-[(4S)-2,2,4-trimethylpyrrolidin-1-yl]pyridine-3-carboxamide]	+++ (“+++” means <3 uM)
COc1ncccc1-c1ccc(C(=O)NS(=O)(=O)c2cccnc2N)c(N2C[C@@H](C)CC2(C)C)n1 [Compound 1980, N-[(2-amino-3-pyridyl)sulfonyl]-6-(2-methoxy-3-pyridyl)-2-[(4S)-2,2,4-trimethylpyrrolidin-1-yl]pyridine-3-carboxamide]	+++ (“+++” means <3 uM)
CC1CN(c2ncccc2C(=O)NS(=O)(=O)c2cccc(Nc3ccc(C(C)(C)C)cc3)n2)C(C)(C)C1 (stereo not drawn) [Compound 1756, N—[[6-(4-tert-butylanilino)-2-pyridyl]sulfonyl]-2-(2,2,4-trimethylpyrrolidin-1-yl)pyridine-3-carboxamide]	+++ (“+++” means <3 uM)
COCC1CCCN(c2cccc(S(=O)(=O)NC(=O)c3cccnc3N3CC(C)CC3(C)C)n2)C1 (stereo not drawn) [Compound 1805, N—[[6-[3-(methoxymethyl)-1-piperidyl]-2-pyridyl]sulfonyl]-2-(2,2,4-trimethylpyrrolidin-1-yl)pyridine-3-carboxamide]	++ (“++” means between 3 uM and 10 uM)
CC1CN(c2ncccc2C(=O)NS(=O)(=O)c2cccc(NCCCN(C)c3ccccc3)n2)C(C)(C)C1 (stereo not drawn) [Compound 1879, N—[[6-[3-(N-methylanilino)propylamino]-2-pyridyl]sulfonyl]-2-(2,2,4-trimethylpyrrolidin-1-yl)pyridine-3-carboxamide]	+++ (“+++” means <3 uM)
CC(C)Oc1ccc(-c2ccc(C(=O)NS(=O)(=O)c3cccc(N)n3)c(N3CCC[C@@H](c4ccccc4)C3)n2)cn1 [Compound 864, N-[(6-amino-2-pyridyl)sulfonyl]-6-(6-isopropoxy-3-pyridyl)-2-[(3S)-3-phenyl-1-piperidyl]pyridine-3-carboxamide]	+++ (“+++” means <3 uM)
